Values joined by “and” are separate entries in the source; they are usually repeats but may differ in a detail not shown here. Equal entries are not always repeated. “Also recorded” adds a separate entry of the source. Where two headings read alike, the source gives them in different places.
What was measured:
[1] = biological target: T1, human prostate 5α-reductase (Homo sapiens, UniProt P31213); test: Inhibition of human prostate 5α-reductase in BPH microsomes (conversion of [7-3H]-testosterone to DHT); assay type: biochemical; details: for Inhibition of 5α-reductase, in words: human prostate enzyme
T1 construct: The enzymatic reactions were initiated by addition of human BPH microsomes; from tissue; host or cells: human benign prostatic hyperplasia (BPH) tissue, microsomal fraction
T1 sequence (P31213 1-254): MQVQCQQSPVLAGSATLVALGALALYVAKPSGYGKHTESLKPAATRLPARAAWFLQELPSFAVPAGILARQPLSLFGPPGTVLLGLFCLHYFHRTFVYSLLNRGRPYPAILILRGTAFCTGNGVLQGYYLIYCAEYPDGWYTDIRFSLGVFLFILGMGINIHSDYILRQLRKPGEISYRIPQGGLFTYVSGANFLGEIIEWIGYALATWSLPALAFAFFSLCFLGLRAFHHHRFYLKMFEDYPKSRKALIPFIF
Protocol: […] The ethanol was evaporated to dryness under a gentle stream of air. […] The enzymatic reactions were initiated by addition of human BPH microsomes (about 180 μg of microsomal protein in 500 μl of phosphate buffer) in a total volume of 1.0 ml, and the incubations were performed for 10 min under oxygen in a shaking water bath at 37° C. The incubations were terminated by placing the sample tubes on ice and the addition of ether. Also, [^14C]-DHT (3000 dpm) and cold DHT (50 μg) were added to each tube as an internal standard and visualization marker, respectively. The steroids were extracted with ether and separated by TLC (chloroform:ether, 80:20) and visualized by exposure to iodine vapor. The extracts were analyzed for ^3H and ^14C using a liquid scintillation counter. The percentage conversion of [7-^3H]-testosterone to [^3H]-dihydrotestosterone was calculated and used to determine 5α-reductase activity.

[2] = biological target: T2, Rat P45017α (Rattus norvegicus, UniProt P11715); test: Inhibition of rat testicular microsomal P45017α (lyase activity); assay type: biochemical
T2 sequence (P11715 1-507): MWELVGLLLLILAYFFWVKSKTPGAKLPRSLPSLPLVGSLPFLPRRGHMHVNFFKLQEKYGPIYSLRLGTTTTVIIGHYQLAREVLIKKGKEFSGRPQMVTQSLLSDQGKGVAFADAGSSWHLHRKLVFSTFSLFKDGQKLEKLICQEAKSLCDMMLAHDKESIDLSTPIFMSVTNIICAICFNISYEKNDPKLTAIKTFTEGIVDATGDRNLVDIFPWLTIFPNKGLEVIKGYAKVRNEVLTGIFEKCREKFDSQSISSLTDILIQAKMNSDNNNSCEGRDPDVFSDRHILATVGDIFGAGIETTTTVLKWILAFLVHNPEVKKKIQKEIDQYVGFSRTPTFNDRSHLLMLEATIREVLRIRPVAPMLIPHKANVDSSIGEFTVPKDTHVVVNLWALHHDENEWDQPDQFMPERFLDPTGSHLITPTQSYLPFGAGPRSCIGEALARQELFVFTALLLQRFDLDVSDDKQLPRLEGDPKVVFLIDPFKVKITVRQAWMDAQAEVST
Protocol: (§1) The microsomes were stored at −70° C. until assayed. Just before use, the thawed microsomes were diluted with 0.1 M phosphate buffer (pH 7.4) to appropriate concentrations.
(§2) This assay measures only the lyase activity of the P45017α enzyme.
(§3) IC50 values for inhibitors were calculated from the linear regression line in the plot of logit of lyase activity versus log of inhibitor concentration. […] Each inhibitor was examined at three concentrations.

[3] = biological target: T3, Human P45017α (Homo sapiens, UniProt P05093); test: Inhibition of human testicular microsomal P45017α (lyase activity, release of C3H3COOH from [21-3H3]-17α-hydroxypregnenolone); assay type: biochemical; details: for % Inhibition of human P45017α / inhibition at 0.15 µM: inhibitor 150 nM, substrate 17α-hydroxypregnenolone 10 μM, mean of two determinations; for Ki: Human P45017α Ki; for inhibition at 0.15 µM: read-out: % Inhibition of human P45017α
T3 construct: Human testicular microsomes were prepared from human testes; from tissue; host or cells: human testes (untreated prostatic cancer patients undergoing orchidectomy), microsomal fraction
T3 sequence (P05093 1-508): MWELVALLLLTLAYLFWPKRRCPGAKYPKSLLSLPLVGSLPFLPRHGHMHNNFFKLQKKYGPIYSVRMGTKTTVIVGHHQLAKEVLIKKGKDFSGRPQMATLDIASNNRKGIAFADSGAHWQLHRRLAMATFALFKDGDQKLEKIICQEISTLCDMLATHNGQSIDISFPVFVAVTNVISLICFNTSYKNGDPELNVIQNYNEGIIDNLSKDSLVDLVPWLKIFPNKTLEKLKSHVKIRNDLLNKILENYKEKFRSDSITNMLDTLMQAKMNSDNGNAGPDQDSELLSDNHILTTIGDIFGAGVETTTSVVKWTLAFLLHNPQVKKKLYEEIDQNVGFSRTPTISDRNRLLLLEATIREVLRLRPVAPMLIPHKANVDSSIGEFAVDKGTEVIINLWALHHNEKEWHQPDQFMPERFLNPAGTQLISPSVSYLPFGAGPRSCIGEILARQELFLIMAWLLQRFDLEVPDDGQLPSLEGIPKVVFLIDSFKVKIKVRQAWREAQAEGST
Protocol: as §1, §2, §3

[4] = test system: LNCaP human prostatic cancer cell; test: Androgen-stimulated growth of LNCaP human prostatic cancer cells in vitro
[5] = human BPH microsomes, mean ± SDM of at least two experiments, read-out: 5α-Reductase IC50
[6] = from IC50 values, rat vs human testicular microsomes
[7] = rat testicular microsomes, mean ± SDM of at least two experiments, read-out: Rat P45017α IC50
[8] = human testicular microsomes, mean ± SDM of at least two experiments, read-out: Human P45017α IC50
[9] = from Lineweaver-Burk plots and slope replots, Km of 17α-hydroxypregnenolone 560 nM

With `CC(=O)O[C@H]1CC[C@@]2(C)C(=CC[C@@H]3[C@@H]2CC[C@]2(C)C(n4cccn4)=CC[C@@H]32)C1` the melting point was 159 to 161 °C.

With `C[C@]12CCC(=O)C=C1CC[C@@H]1[C@@H]2CC[C@]2(C)C(n3cncn3)=CC[C@@H]12` [Compound 7, 17-(1H, 1,2,4-triazol-1-yl)androsta-4,16-diene-3-one] the IC50 [1, 5] was 152 ± 10 nM, the “Inhibition of 5α-reductase, in words” value [1] was “potent inhibitors” and the “Increase of potency towards the rat enzyme compared with human P45017α” value (shortened to “Increase”) [2, 6] was 5 fold. The “Inhibition of rat testicular P45017α, in words” value ([2]; rat testicular microsomes) was “powerful inhibitors”, the IC50 [2, 7] was 11 ± 3 nM and the “Inhibition of human P45017α, in words” value ([3]; human testicular microsomes) was “powerful inhibitors”. For the same compound, the IC50 [3, 8] was 55 ± 11 nM.

In the case of `C[C@]12CC[C@H](O)CC1=CC[C@@H]1[C@@H]2CC[C@]2(C)C(n3nccn3)=CC[C@@H]12` [Compound 18, 3β-hydroxy-17-(2H-1,2,3-triazol-2-yl)androsta-5,16-diene], the melting point is reported as 176 to 177 °C, the “Inhibition of human P45017α, in words” value ([3]; human testicular microsomes) is reported as “non-inhibitory” and the “% Inhibition of human P45017α” value [3] is reported as “N.I.^c”.

For `C[C@]12CC[C@H](O)CC1=CC[C@@H]1[C@@H]2CC[C@]2(C)C(n3ncnn3)=CC[C@@H]12` [Compound 25, 3β-hydroxy-17-(2H-tetrazol-2-yl)androsta-5,16-diene], the melting point was 195 to 198 °C, the “Inhibition of human P45017α, in words” value ([3]; human testicular microsomes) was “non-inhibitory” and the “% Inhibition of human P45017α” value [3] was “N.I.^c”.

For `C[C@]12CC[C@H]3[C@@H](CCC4=CC(=O)CC[C@@]43C)[C@@H]1CC[C@@H]2n1ccnc1` [Compound 14, 17β-(1H-imidazol-1-yl)androst-4-ene-3-one], the IC50 [1] was 765 ± 100 nM and the IC50 [3] was 36 nM.

For `CC(=O)N1CCN(c2ccc(OCC3COC(Cn4ccnc4)(c4ccc(Cl)cc4Cl)O3)cc2)CC1` (stereo not shown) [Ketoconazole, reference compound], the “Decrease of potency towards the rat enzyme compared with human P45017α” value [2, 6] was “about 3 fold”, the IC50 [2, 7] was 209 ± 17 nM and the “Inhibition of human P45017α, in words” value ([3]; human testicular microsomes) was “strong inhibition”.

Compound `CC(=O)O[C@H]1CC[C@@]2(C)C(=CC[C@@H]3[C@@H]2CC[C@]2(C)C(n4nccn4)=CC[C@@H]32)C1` has a melting point of 154 to 155 °C.

With `C[C@]12CC[C@H](O)CC1=CC[C@@H]1[C@@H]2CC[C@]2(C)C(n3ccnn3)=CC[C@@H]12` [Compound 20, 3β-hydroxy-17-(1H-1,2,3-triazol-1-yl)androsta-5,16-diene] the inhibition at 5 µM ([4]; Homo sapiens, LNCaP, read-out: Inhibition of DHT-induced growth of LNCaP cells) was 100%, the inhibition at 2.5 µM ([4]; Homo sapiens, LNCaP, read-out: Inhibition of testosterone-stimulated growth of LNCaP cells) was 100% and the “Toxicity to LNCaP cells” value ([4]; concentration range 0.5-5.0 μM) was “nor was toxic to the cells”. For the same compound, the Antiandrogenic effects ([4]; inferred from inhibition of androgen-stimulated LNCaP growth) was “strong antiandrogenic effects”, the IC50 [1, 5] was about 10000 nM and the IC50 [2] was 10 ± 0.4 nM. The IC50 [3] was 13 ± 1 nM, the Ki [3] was 1.4 nM and the “Inhibition of human P45017α, in words” value ([3]; human testicular microsomes) was “potent inhibitors; also recorded: powerful inhibitors”. The inhibition at 0.15 µM [3] was 94%.

Work on `CC(=O)O[C@H]1CC[C@@]2(C)C(=CC[C@@H]3[C@@H]2CC[C@]2(C)C(n4ncnn4)=CC[C@@H]32)C1` yielded a melting point of 155 to 156 °C.

With `C[C@]12CC[C@H](O)CC1=CC[C@@H]1[C@@H]2CC[C@]2(C)C(n3cnnn3)=CC[C@@H]12` [Compound 27, 3β-hydroxy-17-(1H-tetrazol-1-yl)androsta-5,16-diene] the melting point was 200 to 204 °C (dec.), the “Inhibition of human P45017α, in words” value ([3]; human testicular microsomes) was “non-inhibitory” and the “% Inhibition of human P45017α” value [3] was “N.I.^c”.

In the case of `C[C@]12CC[C@H]3[C@@H](CC=C4C[C@@H](O)CC[C@@]43C)[C@@H]1CC[C@@H]2n1cncn1` [Compound 8, 3β-hydroxy-17β-(1H-1,2,4-triazol-1-yl)androst-5-ene], the melting point is reported as 246 to 248 °C and the IC50 [3, 8] is reported as 219 nM.

In the case of `C[C@]12CCC(=O)C=C1CC[C@@H]1[C@@H]2CC[C@]2(C)C(n3ccnc3)=CC[C@@H]12` [Compound 12, 17-(1H-imidazol-1-yl)androsta-4,16-diene-3-one], the IC50 [1, 5] is reported as 142 ± 5 nM, the “Inhibition of 5α-reductase, in words” value [1] is reported as “potent inhibitors” and the “Increase” value [2, 6] is reported as “unchanged”. The “Inhibition of rat testicular P45017α, in words” value ([2]; rat testicular microsomes) was “powerful inhibitors”, the IC50 [2, 7] was 8 ± 0.7 nM and the IC50 [3] was 7 ± 1 nM. The Ki [3, 9] was 1.8 nM and 1.9 nM and the “Inhibition of human P45017α, in words” value ([3]; human testicular microsomes) was “powerful inhibitors”.

With `CC(=O)O[C@H]1CC[C@@]2(C)C(=CC[C@H]3[C@@H]4CC[C@@H](n5cccn5)[C@@]4(C)CC[C@@H]32)C1` the melting point was 238 to 240 °C.

In the case of `C[C@]12CC[C@H]3[C@@H](CC=C4C[C@@H](O)CC[C@@]43C)[C@@H]1CC[C@@H]2n1ccnc1` [Compound 13, 3β-Hydroxy-17β-(1H-imidazol-1-yl)androst-5-ene], the melting point is reported as 255 to 258 °C and the IC50 [3] is reported as 62 nM.

With `C[C@]12CC[C@H](O)CC1=CC[C@@H]1[C@@H]2CC[C@]2(C)C(n3cncn3)=CC[C@@H]12` [Compound 6, 3β-hydroxy-17-(1H, 1,2,4-triazol-1-yl)androsta-5,16-diene] the IC50 [1, 5] was about 160000 nM, the “Inhibition of 5α-reductase, in words” value [1] was “poor inhibitors” and the “Increase” value [2, 6] was 3.5 fold. For the same compound, the “Inhibition of rat testicular P45017α, in words” value ([2]; rat testicular microsomes) was “powerful inhibitors”, the IC50 [2, 7] was 26 ± 13 nM and the melting point was 185 to 189 °C (dec.). The IC50 [3] was 90 nM, the Ki [3, 9] was 23 nM and the “Inhibition of human P45017α, in words” value ([3]; human testicular microsomes) was “potent inhibitors; also recorded: powerful inhibitors”. For the same compound, the inhibition at 0.15 µM [3] was 60%.

With `C[C@]12CCC(=O)C=C1CC[C@@H]1[C@@H]2CC[C@]2(C)C(n3ccnn3)=CC[C@@H]12` [Compound 21, 17-(1H-1,2,3-triazol-1-yl)androsta-4,16-diene-3-one] the IC50 [1, 5] was 198 ± 33 nM, the “Inhibition of 5α-reductase, in words” value [1] was “potent inhibitors” and the “Increase” value [2, 6] was 2 fold. The “Inhibition of rat testicular P45017α, in words” value ([2]; rat testicular microsomes) was “powerful inhibitors”, the IC50 [2, 7] was 9 ± 2 nM and the melting point was 118 to 120 °C. The IC50 [3] was 19 ± 1 nM, the Ki [3, 9] was 8 nM and the “Inhibition of human P45017α, in words” value ([3]; human testicular microsomes) was “powerful inhibitors”.

With `C[C@]12CC[C@H](O)CC1=CC[C@@H]1[C@@H]2CC[C@]2(C)C(n3cccn3)=CC[C@@H]12` [Compound 30, 3β-hydroxy-17-(1H-pyrazol-1-yl)androsta-5,16-diene] the melting point was 197 to 199 °C, the “Inhibition of human P45017α, in words” value ([3]; human testicular microsomes) was “moderate inhibitor” and the inhibition at 0.15 µM [3] was 40%.

Work on `CC(=O)O[C@H]1CC[C@@]2(C)C(=CC[C@@H]3[C@@H]2CC[C@]2(C)C(n4ccnn4)=CC[C@@H]32)C1` yielded a melting point of 158 to 160 °C.

Reference: US6444683B2, “17-azolyl steroids useful as androgen synthesis inhibitors” (University of Maryland at Baltimore, priority 1997, dated 2002)
